Data from publication PMC8630742, “Citrullinated Epitopes Identified on Tumour MHC Class II by Peptide Elution Stimulate Both Regulatory and Th1 Responses and Require Careful Selection for Optimal Anti-Tumour Responses” (Frontiers in Immunology, 2021).

Experiments:
splenocytes (IFNγ) = assay: Ex vivo IFNγ ELISpot assay on splenocytes of immunised mice; type: in vivo, mouse; details: for IFNγ response at lower (10µg) immunising peptide dose / IFNγ response to immunising peptide: HLA-DP4 transgenic mice; for IFNγ response at lower (10µg) immunising peptide dose: 10µg single peptide, Figure 2F; for IFNγ response to immunising peptide: 25µg single peptide with CpG and MPLA days 1, 8, 15, splenocytes day 21, 10 µg/mL peptide, Figure 2A; for IFNγ response in presence of CD4 blocking antibody: anti-CD4 OKT4 20µg/ml, C; for avidity of the immune response: titrating quantities of peptide in IFNγ ELISpot, Figure 2E
Procedure: (§1) For all studies, the mice were randomised into different groups but not blinded to the investigators. Peptides were dissolved in PBS and then emulsified with CpG (ODN 1826, Invivogen) and MPLA (Invivogen) and delivered at 10 or 25µg dose unless stated otherwise. Adjuvants were used at 5µg/dose. Peptides in adjuvant were injected subcutaneously at the base of the tail. Mice were immunised on day 1, 8 and 15 and spleens were removed for analysis at day 21.
ELISpot assays were performed using murine IFNγ and IL-10 capture and detection reagents according to the manufacturer’s instructions (Mabtech). In brief, the specific cytokine antibodies were coated onto wells of 96-well Immobilin-P plates. […] (RPMI medium 1640 (GIBCO/BRL) supplemented with 10% FCS (Sigma), 2mM L-glutamine (Sigma) and sodium bicarbonate buffered with additional 20mM HEPES (Sigma) and 50 µM 2-mercaptoethanol (2ME, Thermofisher). 5x10^5/well splenocytes were added in quadruplicate wells, plates were incubated for 40 hours at 37 °C/5% CO2. Cells with culture media only were added as negative control and cells cultured with 5 µg/ml Lipopolysaccharide (LPS, Sigma) were used as a positive control. Where relevant anti-CD4 (human clone OKT4, BioXcell) or CD8 (mouse clone 2.43, BioXcell) blocking antibodies were added to splenocytes at 20µg/ml for 15 minutes prior to stimulation with peptide. After incubation, captured cytokine was detected by biotinylated cytokine specific antibody and developed using streptavidin alkaline phosphatase and chromogenic substrate. Spots were analysed and counted using an automated plate reader (Cellular Technologies Ltd). Results were represented as spots/million splenocytes.

HLA-DP4 = HLA-DP4 competition binding assay against biotinylated Hepatitis B peptide (membrane preps, ELISA); design: species or system human; details: Figure 1D; for binding of the reference Hepatitis B peptide in presence of competitor (% maximal binding): equal quantity of non-biotinylated competitor and 10 µg biotinylated HepB 181-193, B16HHDII/cDP4 membrane preps, 4 hrs 37°C, streptavidin ELISA, anti-HLA-DP; for competition with the Hepatitis B reference peptide: equal quantity of competitor and 10 µg biotinylated HepB 181-193
Procedure: Binding of peptides to HLA-DP4 was assessed by extraction of membrane fractions from B16HHDII/cDP4 cells using Mem-PER™ Plus Membrane Protein Extraction Kit (Thermo Fisher-Scientific) according to manufacturer’s instructions. Membrane preps containing HLA-DP4 were incubated with 10 µg biotinylated peptide for 4hrs at 37°C. For competition assays, the membrane preps and 10 µg biotinylated Hepatitis B peptide were pre-incubated in the presence of specified concentrations of non-biotinylated peptides. Biotinylated peptide bound to HLA-DP4 was detected by capture onto streptavidin-coated ELISA plates and detected with anti-HLA-DP antibody clone B7/21 (Leinco Technologies Inc, USA) and anti-mouse IgG3 HRP antibody (Invitrogen, UK). Binding was quantified with TMB substrate and absorbance read at 405nm wavelength.
Figure 1 Citrullinated peptide combination vaccination provides poor tumour therapy in HLA-DP4 transgenic mice. HLA-DP4 transgenic mice were challenged with B16 cells constitutively expressing DP4 (A) or expressing DP4 under an IFNγ inducible promoter (B) and four days later mice were immunised with combination of 10ug each of seven eluted peptides and tumour growth and survival monitored. N=10/group. (C), HLA-DP4 transgenic mice were immunised with seven peptide combination vaccine at days 1, 8 and 15 and immune responses monitored at day 21 by IFNγ ELISpot assay. Results are representative of at least two independent experiments in which n=3. (D), Competition of equal quantity of non-biotinylated competitor peptides in the presence of 10µg biotinylated HepB 181-193 peptide. Results are representative of at least two independent experiments.

splenocytes (IL-10) = assay: Ex vivo IL-10 ELISpot assay on splenocytes of immunised mice; type: in vivo, mouse; details: for IL-10 response to immunising peptide: HLA-DP4 transgenic mice, 25ug single peptide with CpG/MPLA days 1, 8, 15, day 21, Figure 3A
Procedure: as §1
ELISpot assays were performed using murine IFNγ and IL-10 capture and detection reagents according to the manufacturer’s instructions (Mabtech). In brief, the specific cytokine antibodies were coated onto wells of 96-well Immobilin-P plates. Synthetic peptides (Genescript) were used at 10 µg/mL and diluted in culture media (RPMI medium 1640 (GIBCO/BRL) supplemented with 10% FCS (Sigma), 2mM L-glutamine (Sigma) and sodium bicarbonate buffered with additional 20mM HEPES (Sigma) and 50 µM 2-mercaptoethanol (2ME, Thermofisher). 5x10^5/well splenocytes were added in quadruplicate wells, plates were incubated for 40 hours at 37 °C/5% CO2. Cells with culture media only were added as negative control and cells cultured with 5 µg/ml Lipopolysaccharide (LPS, Sigma) were used as a positive control. Where relevant anti-CD4 (human clone OKT4, BioXcell) or CD8 (mouse clone 2.43, BioXcell) blocking antibodies were added to splenocytes at 20µg/ml for 15 minutes prior to stimulation with peptide. After incubation, captured cytokine was detected by biotinylated cytokine specific antibody and developed using streptavidin alkaline phosphatase and chromogenic substrate. Spots were analysed and counted using an automated plate reader (Cellular Technologies Ltd). Results were represented as spots/million splenocytes.

[1] = test system: B16/HHDII/cDP4 (B16cDP4) cells; assay: Tumour therapy, B16cDP4 melanoma in HLA-DP4 transgenic mice; type: in vivo, mouse; details: for tumour free survival: 25ug individual peptide with CpG/MPLA, n=10/group, Figure 4A; for overall survival at day 50 / tumour growth: 25ug individual peptide, compared to unimmunised control, Figure 4
Procedure: as §1
For the tumour therapy studies, HHDII/DP4 transgenic mice were challenged by subcutaneous injection with 5 × 105 B16/HHDII/cDP4 (B16cDP4) cells or 1 × 105 B16/HHDII/iDP4 (B16iDP4) cells subcutaneously on the flank at day 1 and then immunised on days 4, 11 and 18. Tumour growth was monitored at 3–4 days intervals and mice were humanely euthanised once tumour approached 15mm diameter.

[2] = mice immunised with 25ug peptide, Figure 2B
[3] = mice immunised with 25ug peptide

Substance | binding of the reference Hepatitis B peptide in presence of competitor (% maximal binding) (HLA-DP4) | IFNγ response to immunising peptide (splenocytes (IFNγ)) | IL-10 response to immunising peptide (splenocytes (IL-10)) | tumour free survival [1] [%] | overall survival at day 50 / tumour growth [1] | also measured
VFDWIRKERNQYGEVRV-cit-FNTYFFR [citMMP21, Synthetic citrullinated peptide Matrix metalloproteinase-21 337-360] | 40-50% | strong IFNγ responses | some IL-10-producing cells | 90 | strong overall survival | IFNγ response in HHDII/DR1 transgenic mice (splenocytes (IFNγ); HHDII/DR1 mice, Figure 2D): No responses; IFNγ response at lower (10µg) immunising peptide dose (splenocytes (IFNγ)): only the response to citMMP21 was observed; IFNγ response in presence of CD4 blocking antibody (splenocytes (IFNγ); [2]): reduced; IFNγ response in presence of CD8 blocking antibody (splenocytes (IFNγ); anti-CD8 2.43 20µg/ml, mice immunised with 25ug peptide, Figure 2C): No significant blocking; avidity of the immune response (splenocytes (IFNγ); [3]): 10^-8 M
EPKSSCYNTHEK-cit-IYQSNMLN-cit-YLI [citGRI, Synthetic citrullinated peptide Glutamate receptor ionotropic 316-340] | 40-50% | strong IFNγ responses | some IL-10-producing cells | 70 | significant overall survival | IFNγ response at lower (10µg) immunising peptide dose (splenocytes (IFNγ)): failed to stimulate an immune response; IFNγ response in presence of CD4 blocking antibody (splenocytes (IFNγ); [2]): efficiently blocked; avidity of the immune response (splenocytes (IFNγ); [3]): 10^-7 M
fibrinogen [reference compound] |  |  |  |  |  | competition with the Hepatitis B reference peptide (HLA-DP4): no competition
LEIY-cit-YTSFVPFTIPHSTTR [citCp450, Synthetic citrullinated peptide Cytochrome P450 1A2 373-392] | 40-50% | absence of any detectable IFNγ response | strong IL-10 response | 20 | tumour growth similar to control | IL-10 response in HHDII/DR1 mice (splenocytes (IL-10); HHDII/DR1 compared to HHDII/DP4 mice, Figure 3C): fail to be stimulated; IL-10 response in presence of CD4 blocking antibody (splenocytes (IL-10); mice immunised with 25ug citCp450, did not reach significance, Figure 3B): reduction in response; IL-10 response when delivered as part of the combination vaccine (splenocytes (IL-10); seven peptide combination vaccine, Figure 3D): stimulated IL-10 responses
collagen [reference compound] |  |  |  |  |  | competition with the Hepatitis B reference peptide (HLA-DP4): no competition
MDEIDAIGG-cit-RFSEGTSADREIQ [cit26S-10B, Synthetic citrullinated peptide 26S protease regulatory subunit 10B 246-268] | 30-35% |  |  |  |  | 
EPKSSCYNTHEKRIYQSNMLNRYLI [GRI, synthetic native peptide Glutamate receptor ionotropic 316-340] |  |  |  |  |  | IFNγ response to unmodified peptide in mice immunised with the citrullinated peptide (splenocytes (IFNγ); mice immunised with 25ug citGRI, Figure 2B): cross reactivity

Further lines, with some results ahead:

binding of the reference Hepatitis B peptide in presence of competitor (% maximal binding) (HLA-DP4) | Substance | IFNγ response to immunising peptide (splenocytes (IFNγ)) | IL-10 response to immunising peptide (splenocytes (IL-10)) | tumour free survival [1] [%] | overall survival at day 50 / tumour growth [1] | also measured
30-35% | KRDVTLEAS-cit-ESSKP-cit-AVLKP-cit- [citSeThrePho, Synthetic citrullinated peptide Serine/threonine-protein phosphatase 2A 55 kDa regulatory subunit B gamma isoform 370-391] |  |  |  |  | 
40-50% | NGQT-cit-EHALLAYTLGVKQLIVGVNK [citELO, Synthetic citrullinated peptide Elongation factor 1-alpha 1 130-154] |  |  |  |  | 
40-50% | ML-cit-CASGAEL-cit-QPPRDVPPDAR [cit5T4, Synthetic citrullinated peptide Trophoblast glycoprotein-like protein 40-61] |  |  |  |  | 
